Experimental data: PMC11610403 (Journal of thrombosis and haemostasis : JTH, 2024)

Experiments:
[1] = tested on: caspase-1 activity in activated THP-1 cells; test: Caspase-1 activity assay in stimulated THP-1 cells; assay type: cell-based, human; conditions: P3 peptide in the presence of P1-47-66 (1.0 nM), Figure 2A
vascular leakage = conditions: given in vivo to mice in the absence of APC or any P1 peptide; cited from earlier work

Substance	synergism with P1-47-66 for reducing caspase-1 activity [1]	vascular leakage in mice (vascular leakage)
P3-51-65: PAR3-derived peptide, residues 51-65 (FPFSALEGWTGATIT; UniProt O00254 51-65, looked up, fragment)	similarly showed synergism	
P3-42-65: PAR3-derived peptide comprising residues 42-65 (GAPPNSFEEFPFSALEGWTGATIT; UniProt O00254 42-65, looked up, fragment)	reduces caspase-1 activity synergistically	reduce vascular leakage
